In the NIST ThermoML archive (doi:10.1016/j.fluid.2014.06.015):
Numbers after ± are expanded uncertainties.

Columns and labels:
[1] = refractive index (Na D-line) (dimensionless); settings: 298.15 K; 101.33 kPa; Liquid; Standard Abbe refractometry
[2] = 298.15 K; 101.33 kPa; Liquid; Vibrating tube method

SMILES	refractive index [1]	mass density [2] [kg/m3]
O [water]	1.3325 ± 0.0005	
CCC(C)(C)O [2-methylbutan-2-ol]	1.4026 ± 0.0005	804.21 ± 0.24
CCC(C)O (configuration not stated) [butan-2-ol]	1.3936 ± 0.0005	802.35 ± 0.13
OCC(O)CO [glycerol]	1.4726 ± 0.0005	1258.52 ± 0.22
